Measurements as given in paper doi:10.1101/767673v1 (bioRxiv, 2019).
Where a SMILES comes first, the peptide text is derived from it. Bridges are numbered along the chain shown (N, C = ends). [ ]: non-standard residue; d: D form. dPhe(4-CF3) = N[C@H](Cc1ccc(C(F)(F)F)cc1)C(=O)O; dTrp(6-F) = N[C@H](Cc1c[nH]c2cc(F)ccc12)C(=O)O; S8 = C=CCCCCCC[C@](C)(N)C(=O)O; R5 = C=CCCC[C@@](C)(N)C(=O)O

Tests used:
[1] = molecular target: human Mdm2 protein (amino acids 1–125) (Homo sapiens, UniProt Q00987); assay: Isothermal titration calorimetry; assay type: binding; details: PBS pH 7.2, 3% DMSO, 0.001% Tween-20, duplicates
Mdm4 = molecular target: T1, Mdm4 (Homo sapiens, UniProt O15151); assay: Competitive fluorescence anisotropy / FP binding assay, Mdm4; details: FP competition assay
T1 sequence (O15151 1-490): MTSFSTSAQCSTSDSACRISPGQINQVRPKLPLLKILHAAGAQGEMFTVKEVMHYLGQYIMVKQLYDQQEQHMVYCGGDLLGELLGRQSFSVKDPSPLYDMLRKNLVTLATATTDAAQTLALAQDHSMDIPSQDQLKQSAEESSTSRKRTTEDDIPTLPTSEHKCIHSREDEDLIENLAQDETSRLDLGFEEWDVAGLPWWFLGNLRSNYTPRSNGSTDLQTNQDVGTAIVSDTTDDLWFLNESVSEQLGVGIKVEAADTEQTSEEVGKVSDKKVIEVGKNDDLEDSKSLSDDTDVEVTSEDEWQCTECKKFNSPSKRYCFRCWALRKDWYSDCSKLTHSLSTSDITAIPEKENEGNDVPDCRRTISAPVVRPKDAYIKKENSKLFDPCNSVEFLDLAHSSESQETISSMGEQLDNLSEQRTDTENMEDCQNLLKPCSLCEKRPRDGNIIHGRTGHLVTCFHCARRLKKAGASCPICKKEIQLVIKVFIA

Mdm2 (1-125) = Mdm2 (1-125) (Homo sapiens, UniProt Q00987); assay: Competitive fluorescence anisotropy / FP binding assay, Mdm2; details: FP competition assay

Row | ITC enthalpy of binding (ΔH) to Mdm2 [1] [kcal/mol] | Binding to Mdm4 in the FP assay (Mdm4) | Binding to Mdm2 in the FP assay (Mdm2 (1-125)) | Structure (SMILES)
1 | -15.8 | – | – | CC(C)C[C@@H](NC(=O)[C@@H](CC(C)C)NC(=O)[C@@H](CCCCN)NC(=O)[C@@H](CCC(=O)O)NC(=O)[C@@H](Cc1ccc(C(F)(F)F)cc1)NC(=O)[C@@H](CC(N)=O)NC(=O)[C@@]1(C)CCCC=CCCC[C@@](C)(N)C(=O)N[C@H](C)C(=O)N[C@H](Cc2c[nH]c3cc(F)ccc23)C(=O)N[C@H](Cc2ccc(O)cc2)C(=O)N1)C(=O)N[C@H](CCCNC(=N)N)C(N)=O [^dPMI-δ(1-5)]
2 | – | displayed no binding | no binding | CC(C)C[C@@H](NC(=O)[C@@H](CC(C)C)NC(=O)[C@@]1(C)CCCC=CCCCCCC[C@](C)(NC(=O)[C@H](N)[C@H](C)O)C(=O)N[C@H](Cc2c[nH]c3cc(F)ccc23)C(=O)N[C@H](Cc2ccc(O)cc2)C(=O)N[C@H](C)C(=O)N[C@H](CC(N)=O)C(=O)N[C@H](Cc2ccc(C(F)(F)F)cc2)C(=O)N[C@H](CCC(=O)O)C(=O)N1)C(=O)N[C@H](CCCNC(=N)N)C(N)=O [^dPMI-δ(2-9)] (H-[dT][S8][dTrp(6-F)][dY][dA][dN][dPhe(4-CF3)][dE][R5][dL][dL][dR]-NH2; staple 2-9; N-terminus and C-terminus assumed)
